Results reported in patent US10239844B2, “Disubstituted triazole analogs” (BioVentures, LLC, priority 2014, dated 2019).

Columns and labels:
KM12 = assay: NCI 60 panel five-dose growth inhibition, Colon Cancer; format: cell-based, human; conditions: for GI50: Homo sapiens
MDA-MB-435 = assay: NCI 60 panel five-dose growth inhibition, Melanoma; format: cell-based, human; conditions: for GI50: Homo sapiens
CAKI-1 = assay: NCI 60 panel five-dose growth inhibition, Renal Cancer; format: cell-based, human; conditions: CAKI-1, Renal Cancer; for GI50: Homo sapiens
CCRF-CEM = assay: NCI 60 panel five-dose growth inhibition, Leukemia; format: cell-based, human; conditions: for GI50: Homo sapiens
HCC-2998 = assay: NCI 60 panel five-dose growth inhibition, Colon Cancer; format: cell-based, human; conditions: HCC-2998, Colon Cancer; for GI50: Homo sapiens
MOLT-4 = assay: NCI 60 panel five-dose growth inhibition, Leukemia; format: cell-based, human; conditions: MOLT-4, Leukemia; for GI50: Homo sapiens
HL-60(T13) = assay: NCI 60 panel five-dose growth inhibition, Leukemia; format: cell-based, human; conditions: for GI50: Homo sapiens
A498 = assay: NCI 60 panel five-dose growth inhibition, Renal Cancer; format: cell-based, human; conditions: for GI50: Homo sapiens, A498, A498, Renal Cancer
HT29 = assay: NCI 60 panel five-dose growth inhibition, Colon Cancer; format: cell-based, human; conditions: for GI50: Homo sapiens, HT-29
786-0 = assay: NCI 60 panel five-dose growth inhibition, Renal Cancer; format: cell-based, human; conditions: 786-0, Renal Cancer; for GI50: Homo sapiens
LOX IMVI = assay: NCI 60 panel five-dose growth inhibition, Melanoma; format: cell-based, human; conditions: for GI50: Homo sapiens
[1] = test system: panel of 60 different human cancer cell lines; assay: NCI panel of 60 human cancer cell lines, summary over the panel; format: cell-based; conditions: against almost all the cell lines except UACC-62, COLO 205 and HCC-2998
Procedure: All synthesized compounds were submitted and evaluated for their anticancer activity at the National Cancer Institute (NCI). The submitted compounds were tested against a panel of 60 different human cancer cell lines, initially at a single concentration of 10 μM. Compounds showing the best growth inhibition activity were then selected for a complete five-dose response study. The anti-tumor effect of each compound was then determined by its GI50 and LC50 values.
The five compounds selected for the full dose response studies have very effective GI50 and TGI (Total Growth Inhibition) values against a variety of human tumor cell lines. All the compounds have LD50 values >100 μM against most of the human cancer cell lines implying the compounds are anti-proliferative. […] Example 4 and Example 6 have <10 nM GI50 values against Leukemia cancer cell lines K-562, SR, non-small lung cancer cell line HOP-92, colon cancer cell lines HCT-116, HCT-15, melanoma cancer lines M14, UACC-62, ovarian cancer cell line NCI/ADR-RES and renal cancer cell line A498.

Compound	TGI (KM12) [µM]	GI50 (KM12) [nM]	GI50 (MDA-MB-435; MDA-MB-435, Melanoma) [nM]	TGI (CAKI-1) [µM]	GI50 (CAKI-1) [nM]	TGI (CCRF-CEM) [µM]	GI50 (CCRF-CEM) [nM]	TGI (HCC-2998) [µM]	GI50 (HCC-2998) [nM]	GI50 (MOLT-4) [nM]	TGI (MOLT-4) [µM]	GI50 (HL-60(T13)) [nM]	TGI (A498; A498, Renal Cancer) [µM]	GI50 (A498) [nM]	TGI (HT29) [µM]	GI50 (HT29) [nM]	TGI (786-0) [µM]	GI50 (786-0) [nM]	TGI (LOX IMVI) [µM]	GI50 (LOX IMVI) [nM]	also measured
COc1cc(-c2n[nH]nc2-c2cc(OC)c(OC)c(OC)c2)cc(OC)c1OC [Example 3, 4,5-bis(3,4,5-trimethoxyphenyl)-2H-1,2,3-triazole]	>100	35.3	< 10	>100	42.6	>100	37.3	>100	230	68.2	>100	30	6.69	33.2	14.5	214	>100	42.8	>100	65.2	TGI (HL-60(T13)): 5.74 µM
COc1cc(-c2n[nH]nc2-c2ccc3ccccc3n2)cc(OC)c1OC [Example 4, 2-(5-(3,4,5-trimethoxyphenyl)-2H-1,2,3-triazol-4-yl)quinoline]	23.8	29.8	< 10	>100	50.2	21.8	31.9	11.4	45.9	48.2	20.0	22.7	–	< 10	20.5	47.6	>100	15.3	>100	75.5	TGI (MDA-MB-435; MDA-MB-435, Melanoma): 0.01 µM; sensitivity to the growth inhibitory effects (MDA-MB-435; MDA-MB-435, in words): sensitive
COc1ccc(-c2n[nH]nc2-c2cc(OC)cc(OC)c2)cc1 [Example 5, 4-(3,5-dimethoxyphenyl)-5-(4-methoxyphenyl)-2H-1,2,3-triazole]	0.05	< 10	< 10	>100	< 10	46.3	< 10	22.4	24.9	12	16.1	< 10	<0.01	< 10	10.8	< 10	19.4	< 10	>100	< 10	TGI (MDA-MB-435; MDA-MB-435, Melanoma): <0.01 µM; TGI (MDA-MB-435; MDA-MB-435, as stated in text): less than 10 nM; GI50 [1]: < 10 nM; TGI (A498; A498, as stated in text): less than 10 nM
COc1ccc(-c2n[nH]nc2-c2cc(OC)c(OC)c(OC)c2)cc1 [Example 6, 4-(4-methoxyphenyl)-5-(3,4,5-trimethoxyphenyl)-2H-1,2,3-triazole]	11.2	< 10	< 10	>100	< 10	>100	33.7	17.5	39.4	39.9	11.6	18.9	1.50	< 10	12.3	25.3	13.5	< 10	37.8	17.5	TGI (HL-60(T13)): 0.08 µM
COc1cc(-c2n[nH]nc2-c2ccc3c(c2)OCCO3)cc(OC)c1OC [Example 7, 4-(2,3-dihydrobenzo[b][1,4]dioxin-6-yl)-5-(3,4,5-trimethoxyphenyl)-2H-1,2,3-triazole]	11.9	70	94.8	>100	316	>100	282	24.6	> 1000	572	51.8	201	9.32	343	12.5	392	63.5	618	87.1	545	–
